How the values were obtained:
Type in all cases: cell-based
[1] = system: Hep3B hepatocellular carcinoma cell line; experiment: MTS cell viability assay (NCI-60 methodology), GI50/LC50, Hep3B; details: Homo sapiens, 48 h, Hep3B cells, 2 days incubation with compound
Experimental: (§1) The number of treated cells was determined by GE InCell 2200 system, and treated cells were stained with Hoechst 33342 which can reveal the remained nucleus in culture plate. The proportion of survival cells then were calculated with the ratio of treated/non-treated cells. The growth inhibition/cytotoxic effect of selected compounds were evaluated by the following protocol of NCI-60 screening platform. The human tumor cell lines are plating on a 96 well plate in a fixed density 24 hr prior compound treatment. Compounds with multiple concentrations are then added into each well for further 48 hr incubation. Cell viability is assessed by MTS method and the potency of compound is represented by GI50 and LC50 calculated by MTS result.
(§2) The cell viability measurement is based on the NCI-60 screening methodology (Nat. Rev. Cancer 6, 813-823, 2006). Briefly, cells are inoculated into 96-well plates at the optimal plating density. After 24 h, one of the two plates for each cell line is processed to determine a time zero cell viability (Tz) by MTS assay (Promega). Compounds are added over a 2-fold serial dilution to provide a total five drug concentrations plus DMSO control. Plates are incubated for a further 2 days, then measured cell viability by MTS assay [control growth (C) and test growth in the presence of drug at the five concentration levels (Ti)]. Growth inhibition of 50% (GI50) is calculated from [(Ti−Tz)/(C−Tz)]×100=50, which is the drug concentration resulting in a 50% reduction of control cells during the drug incubation. The LC50 is calculated from [(Ti−Tz)/Tz]×100=−50, which is the drug concentration resulting in a 50% reduction at the end of the drug treatment as compared to that at the beginning.
(§3) Herein, Hep3B refers to hepatocellular carcinoma cell line, SW480 refers to colon adenocarcinoma cell line, and NCI-H460 refers to human lung cancer cell line.

[2] = system: SW480 colon adenocarcinoma cell line; experiment: MTS cell viability assay (NCI-60 methodology), GI50/LC50, SW480; details: Homo sapiens, 48 h, SW480 cells, 2 days incubation with compound
Experimental: as §1, §2, §3

[3] = system: hepatocellular carcinoma cell line Hep3B; experiment: Growth inhibition of Hep3B cells, 48 hr treatment, Hoechst 33342 nucleus count (GE InCell 2200); details: Homo sapiens
In short: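 Compound exposure lasted 48 hr at 37° C, 5% CO2. Surviving nuclei were counted after Hoechst 33342 staining, and survival was expressed as the treated/non-treated cell number ratio, including the ratio at 10 μM compound.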

[4] = system: NCI-H460 human lung cancer cell line; experiment: MTS cell viability assay (NCI-60 methodology), GI50/LC50, NCI-H460; details: 48 h, NCI-H460 cells, 2 days incubation with compound
Experimental: as §1, §2, §3

[5] = Table 1, ratio of number of tumor cells treated with 10 μM compound to non-treated cells
[6] = Table 6, ratio of number of tumor cells treated with 10 μM compound to non-treated cells

Compound: Nc1nc2ccc(CC(=O)Nc3nnc(-c4ccc(Br)cc4)s3)cc2s1 [Compound 1-7, 2-(2-aminobenzo[d]thiazol-6-yl)-N-(5-(4-bromophenyl)-1,3,4-thiadiazol-2-yl)acetamide]
- GI50 [1]: 3170 nM
- LC50 [1]: 9400 nM
- GI50 [2]: 7700 nM

Compound: CCCOc1ccccc1-c1nnc(NC(=O)Cc2ccc3nc(N)sc3c2)s1 [Compound 1-10, 2-(2-aminobenzo[d]thiazol-6-yl)-N-(5-(2-propoxyphenyl)-1,3,4-thiadiazol-2-yl)acetamide]
- viability at 10 µM [3, 5]: 61%
- GI50 [1]: 170 nM
- LC50 [1]: 550 nM
- GI50 [2]: 900 nM
- LC50 (NCI-60 lethal concentration, 50% net cell loss vs time zero) [2]: 5.17 µM

Compound: CC(C)Oc1ccccc1-c1nnc(NC(=O)Cc2ccc3nc(N)sc3c2)s1 [Compound 1-15, 2-(2-aminobenzo[d]thiazol-6-yl)-N-(5-(2-isopropoxyphenyl)-1,3,4-thiadiazol-2-yl)acetamide]
- viability at 10 µM [3, 5]: 56%
- GI50 [1]: 170 nM
- LC50 [1]: 500 nM
- GI50 [2]: 620 nM

Compound: CCC(CC)Oc1ccc(-c2nnc(NC(=O)Cc3ccc4nc(N)sc4c3)s2)cc1 [Compound 1-16, 2-(2-aminobenzo[d]thiazol-6-yl)-N-(5-(4-(pentan-3-yloxy)phenyl)-1,3,4-thiadiazol-2-yl)acetamide]
- viability at 10 µM [3, 5]: 84%
- GI50 [1]: 2830 nM
- LC50 [1]: 4340 nM
- GI50 [2]: 7260 nM

Compound: CCCOc1ccc(-c2nnc(NC(=O)Cc3ccc4nc(N)sc4c3)s2)cc1 [Compound 1-17, 2-(2-aminobenzo[d]thiazol-6-yl)-N-(5-(4-propoxyphenyl)-1,3,4-thiadiazol-2-yl)acetamide]
- viability at 10 µM [3, 5]: 82%
- GI50 [1]: 600 nM
- LC50 [1]: 890 nM
- GI50 [2]: 1810 nM

Compound: CCCCOc1ccccc1-c1nnc(NC(=O)Cc2ccc3nc(N)sc3c2)s1 [Compound 1-20, 2-(2-aminobenzo[d]thiazol-6-yl)-N-(5-(2-butoxyphenyl)-1,3,4-thiadiazol-2-yl)acetamide]
- viability at 10 µM [3, 5]: 81%
- GI50 [1]: 210 nM
- LC50 [1]: 630 nM
- GI50 [2]: 1150 nM

Compound: Cc1ccc(-c2nc(NC(=O)Cc3ccc4nc(N)sc4c3)sc2-c2ccc(Br)cc2)cc1 [Compound 3-3, 2-(2-aminobenzo[d]thiazol-6-yl)-N-(5-(4-bromophenyl)-4-(p-tolyl)thiazol-2-yl)acetamide]
- viability at 10 µM ([3]; Table 3, ratio of number of tumor cells treated with 10 μM compound to non-treated cells): 71%
- GI50 [1]: 1140 nM
- GI50 [2]: 7970 nM

Compound: Cc1ccc(-c2nc(NC(=O)Cc3ccc4nc(N)sc4c3)sc2-c2ccc(F)cc2)cc1 [Compound 3-4, 2-(2-aminobenzo[d]thiazol-6-yl)-N-(5-(4-fluorophenyl)-4-(p-tolyl)thiazol-2-yl)acetamide]
- GI50 [1]: 2070 nM
- GI50 [4]: 3.02 µM

Compound: Cc1ccc(-c2nc(NC(=O)c3ccc([N+](=O)[O-])s3)sc2-c2ccc(Br)cc2)cc1 [Compound 6-2, N-(5-(4-bromophenyl)-4-(p-tolyl)thiazol-2-yl)-5-nitrothiophene-2-carboxamide]
- GI50 [1]: 1270 nM
- LC50 [1]: 1940 nM
- GI50 [2]: 970 nM
- LC50 (NCI-60 lethal concentration, 50% net cell loss vs time zero) [2]: 2.72 µM

Compound: CCOc1ccc(-c2nc(NC(=O)c3ccc([N+](=O)[O-])s3)sc2Cc2ccc(F)cc2)cc1 [Compound 6-35, N-(4-(4-ethoxyphenyl)-5-(4-fluorobenzyl)thiazol-2-yl)-5-nitrothiophene-2-carboxamide]
- viability at 10 µM [3, 6]: 47%

Compound: CCOc1ccc(-c2nc(NC(=O)c3ccc([N+](=O)[O-])s3)sc2Cc2cccc(F)c2)cc1 [Compound 6-36, N-(4-(4-ethoxyphenyl)-5-(3-fluorobenzyl)thiazol-2-yl)-5-nitrothiophene-2-carboxamide]
- viability at 10 µM [3, 6]: 41%

Compound: CC(C)(C)c1ccc(-c2nc(NC(=O)c3ccc([N+](=O)[O-])s3)sc2Cc2ccc(F)cc2)cc1 [Compound 6-37, N-(4-(4-(tert-butyl)phenyl)-5-(4-fluorobenzyl)thiazol-2-yl)-5-nitrothiophene-2-carboxamide]
- viability at 10 µM [3, 6]: 39%

Compound: CC(C)(C)c1ccc(-c2nc(NC(=O)c3ccc([N+](=O)[O-])s3)sc2-c2ccc(F)cc2F)cc1 [Compound 6-39, N-(4-(4-(tert-butyl)phenyl)-5-(2,4-difluorophenyl)thiazol-2-yl)-5-nitrothiophene-2-carboxamide]
- viability at 10 µM [3, 6]: 31%

Compound: CC(C)(C)c1ccc(-c2nc(NC(=O)c3ccc([N+](=O)[O-])s3)sc2-c2cccc(F)c2)cc1 [Compound 6-41, N-(4-(4-(tert-butyl)phenyl)-5-(3-fluorophenyl)thiazol-2-yl)-5-nitrothiophene-2-carboxamide]
- viability at 10 µM [3, 6]: 36%

Compound: CCOC(=O)c1sc(NC(=O)c2ccc([N+](=O)[O-])s2)nc1-c1ccc(C(C)(C)C)cc1 [Compound 6-42, ethyl 4-(4-(tert-butyl)phenyl)-2-(5-nitrothiophene-2-carboxamido)thiazole-5-carboxylate]
- viability at 10 µM [3, 6]: 49%

Compound: CN1CCN(C(=O)c2sc(NC(=O)c3ccc([N+](=O)[O-])s3)nc2-c2ccc(C(C)(C)C)cc2)CC1 [Compound 6-43, N-(4-(4-(tert-butyl)phenyl)-5-(4-methylpiperazine-1-carbonyl)thiazol-2-yl)-5-nitrothiophene-2-carboxamide]
- viability at 10 µM [3, 6]: 38%

Compound: CC(C)(C)c1ccc(-c2nc(NC(=O)c3ccc([N+](=O)[O-])s3)sc2C(=O)NC2CC2)cc1 [Compound 6-44, 4-(4-(tert-butyl)phenyl)-N-cyclopropyl-2-(5-nitrothiophene-2-carboxamido)thiazole-5-carboxamide]
- viability at 10 µM [3, 6]: 81%

Compound: CC(C)(C)c1ccc(-c2nc(NC(=O)c3ccc([N+](=O)[O-])s3)sc2-c2ccccc2F)cc1 [Compound 6-48, N-(4-(4-(tert-butyl)phenyl)-5-(2-fluorophenyl)thiazol-2-yl)-5-nitrothiophene-2-carboxamide]
- viability at 10 µM [3, 6]: 45%

Compound: CC(C)(C)c1ccc(-c2nc(NC(=O)c3ccc([N+](=O)[O-])s3)sc2C(=O)N2CCOCC2)cc1 [Compound 6-49, N-(4-(4-(tert-butyl)phenyl)-5-(morpholine-4-carbonyl)thiazol-2-yl)-5-nitrothiophene-2-carboxamide]
- viability at 10 µM [3, 6]: 57%

Compound: CC(C)(C)c1ccc(-c2nc(NC(=O)c3ccc([N+](=O)[O-])s3)sc2C#N)cc1 [Compound 6-50, N-(4-(4-(tert-butyl)phenyl)-5-cyanothiazol-2-yl)-5-nitrothiophene-2-carboxamide]
- viability at 10 µM [3, 6]: 53%

Compound: CC(C)(C)c1ccc(-c2nc(NC(=O)c3ccc([N+](=O)[O-])s3)sc2-c2cc(F)c(F)c(F)c2)cc1 [Compound 6-51, N-(4-(4-(tert-butyl)phenyl)-5-(3,4,5-trifluorophenyl)thiazol-2-yl)-5-nitrothiophene-2-carboxamide]
- viability at 10 µM [3, 6]: 50%

Compound: CC(C)(C)c1ccc(-c2nc(NC(=O)c3ccc([N+](=O)[O-])s3)sc2-c2c(F)cc(F)cc2F)cc1 [Compound 6-52, N-(4-(4-(tert-butyl)phenyl)-5-(2,4,6-trifluorophenyl)thiazol-2-yl)-5-nitrothiophene-2-carboxamide]
- viability at 10 µM [3, 6]: 37%

Compound: CC(C)(C)c1ccc(-c2nc(NC(=O)c3ccc([N+](=O)[O-])s3)sc2-c2ccccc2Cl)cc1 [Compound 6-55, N-(4-(4-(tert-butyl)phenyl)-5-(2-chlorophenyl)thiazol-2-yl)-5-nitrothiophene-2-carboxamide]
- viability at 10 µM [3, 6]: 30%

Compound: CC(C)(C)c1ccc(-c2nc(NC(=O)c3ccc([N+](=O)[O-])s3)sc2-c2cccc(Cl)c2)cc1 [Compound 6-56, N-(4-(4-(tert-butyl)phenyl)-5-(3-chlorophenyl)thiazol-2-yl)-5-nitrothiophene-2-carboxamide]
- viability at 10 µM [3, 6]: 28%

Compound: CC(C)(C)c1ccc(-c2nc(NC(=O)c3ccc([N+](=O)[O-])s3)sc2-c2ccccc2Br)cc1 [Compound 6-57, N-(5-(2-bromophenyl)-4-(4-(tert-butyl)phenyl)thiazol-2-yl)-5-nitrothiophene-2-carboxamide]
- viability at 10 µM [3, 6]: 29%

Compound: CC(C)(C)c1ccc(-c2nc(NC(=O)c3ccc([N+](=O)[O-])s3)sc2-c2cccc(Br)c2)cc1 [Compound 6-58, N-(5-(3-bromophenyl)-4-(4-(tert-butyl)phenyl)thiazol-2-yl)-5-nitrothiophene-2-carboxamide]
- viability at 10 µM [3, 6]: 32%

Compound: CC(C)(C)c1ccc(-c2nc(NC(=O)c3ccc([N+](=O)[O-])s3)sc2Br)cc1 [Compound 6-60, N-(5-bromo-4-(4-(tert-butyl)phenyl)thiazol-2-yl)-5-nitrothiophene-2-carboxamide]
- viability at 10 µM [3, 6]: 45%
